Experimental data reported in patent publication US20240033234A1, “THERAPEUTIC COMPOUNDS, FORMULATIONS, AND USE THEREOF” (Tvardi Therapeutics, Inc., priority 2022, published 2024).
Several values for one entry are separate records, joined by “and”; a condition that tells them apart may be missing. Equal values may be shown once.

Assay: Accelerated and long term stability study of TTI-101 (Batch A, Batch B): HPLC assay, purity, impurities and water content after storage at 5° C., 25° C./60% RH, 30° C./65% RH or 40° C./75% RH
Type: physicochemical
Procedure: Exemplary HPLC conditions: diluent was 0.1% trifluoroacetic acid (TFA) in acetonitrile, Mobile Phase A was 0.05% TFA in water, and Mobile Phase B was 0.05% TFA in acetonitrile, column (Agilent, Eclipse XDB-C18, 3.0×100 mm, particle size 1.8 μm), flow (0.425 mL/min), and detector (280 nm diode array).
Batch A was prepared analogously using Method 3 as described in Example 1. Batch B was prepared according to Method 5 as described in Example 1.
Samples of TTI-101 were stored at 5° C., 25° C./60% RH, 30° C./65% RH, or 40° C./75% RH. TTI-101 was stored in an LDPE bag enclosed with a Nylon cable tie and then transferred to another LDPE bag and enclosed with a Nylon cable tie. The enclosure was put into an HDPE bottle and closed with a polyethylene-lined polypropylene cap. The samples were stored under the above-identified conditions.
The samples were analyzed using HPLC with the exemplary conditions identified above. Relative retention time (RRT) for Compound 5 was about 0.83, Compound 4 was about 1.05-1.06, Compound 6 was about 1.15-1.17, and compound of formula (IV) was about 0.99.
• NA not applicable • NQ ≥0.02% and <0.05% • Avg average • Cmpd compound • — no peak • M month • RRT relative retention time

[1] = Storage 25° C./60% RH, 6 M, Prep P1-P2
[2] = Storage 25° C./60% RH, 6 M, Prep P1-P2, listed as Batch B
[3] = Storage 25° C./60% RH, 9 M, Avg
[4] = Storage 25° C./60% RH, 9 M, Prep P1-P2
[5] = Storage 25° C./60% RH, 9 M, Prep P1-P2, listed as Batch B
[6] = Storage 40° C./75% RH, 0 M, Avg
[7] = Storage 40° C./75% RH, 0 M, Prep P1-P5
[8] = Storage 40° C./75% RH, 0 M, Prep P1-P5, listed as Batch B
[9] = Storage 40° C./75% RH, 1 M, Avg
[10] = Storage 40° C./75% RH, 1 M, Prep P1-P2
[11] = Storage 40° C./75% RH, 3 M, Avg
[12] = Storage 40° C./75% RH, 3 M, Prep P1-P2
[13] = Storage 40° C./75% RH, 3 M, Prep P1-P2, listed as Batch B
[14] = Storage 40° C./75% RH, 6 M, Avg
[15] = Storage 40° C./75% RH, 6 M, Prep P1-P2
[16] = Storage 40° C./75% RH, 6 M, Prep P1-P2, listed as Batch B

- Impurity RRT 0.84 [1]: NQ (≥0.02% and <0.05%)
- Impurity RRT 0.87 [1]: NQ (≥0.02% and <0.05%)
- Impurity RRT 1.05 [1]: NQ (≥0.02% and <0.05%)
- Impurity RRT 1.06 (Cmpd 4) [1]: NQ (≥0.02% and <0.05%)
- Impurity RRT 1.39 [1]: NQ (≥0.02% and <0.05%)
- Water Content [1]: <0.04%
- Assay [2]: 99.0% and 98.5%
- Impurity RRT 1.17 (Cmp 6) [2]: 0.23 area % and 0.25 area %
- Purity [2]: 99.6% and 99.5%
- Assay [3]: 99.0%
- Impurities Total [3]: 0.4 area %
- Impurity RRT 0.84 [3]: NQ (≥0.02% and <0.05%)
- Impurity RRT 0.87 [3]: NQ (≥0.02% and <0.05%)
- Impurity RRT 0.99 [3]: 0.12 area %
- Impurity RRT 1.02 [3]: 0.06 area %
- Impurity RRT 1.16 (Cmp 6) [3]: 0.18 area %
- Impurity RRT 1.39 [3]: NQ (≥0.02% and <0.05%)
- Purity [3]: 99.5%
- Water Content [3]: 0.1%
- Impurities Total [4]: 0.4 area %
- Impurity RRT 0.84 [4]: NQ (≥0.02% and <0.05%)
- Impurity RRT 0.87 [4]: NQ (≥0.02% and <0.05%)
- Impurity RRT 1.02 [4]: 0.06 area %
- Impurity RRT 1.16 (Cmp 6) [4]: 0.18 area %
- Impurity RRT 1.39 [4]: NQ (≥0.02% and <0.05%)
- Water Content [4]: 0.1%
- Assay [5]: 99.7% and 98.2%
- Impurity RRT 0.99 [5]: 0.12 area % and 0.13 area %
- Purity [5]: 99.6% and 99.5%
- Assay [6]: 99.4%
- Impurities Total [6]: 0.1 area %
- Impurity RRT 0.61 [6]: 0.05 area %
- Impurity RRT 0.86 [6]: NQ (≥0.02% and <0.05%)
- Impurity RRT 0.88 [6]: NQ (≥0.02% and <0.05%)
- Impurity RRT 0.99 [6]: NQ (≥0.02% and <0.05%)
- Impurity RRT 1.16 (Cmp 6) [6]: 0.07 area %
- Purity [6]: 99.8%
- Water Content [6]: 0.1%
- Water Content (Storage 40° C./75% RH, 0 M, Prep P1-P2): 0.1%
- Impurities Total [7]: 0.1 area %
- Impurity RRT 0.86 [7]: NQ (≥0.02% and <0.05%)
- Impurity RRT 0.99 [7]: NQ (≥0.02% and <0.05%)
- Purity [7]: 99.8%
- Impurity RRT 1.16 (Cmp 6) [8]: 0.08 area % and 0.07 area %
- Assay [9]: 99.2%
- Impurities Total [9]: 0.6 area %
- Impurity RRT 0.80 [9]: NQ (≥0.02% and <0.05%)
- Impurity RRT 0.84 [9]: NQ (≥0.02% and <0.05%)
- Impurity RRT 0.87 [9]: NQ (≥0.02% and <0.05%)
- Impurity RRT 0.99 [9]: 0.14 area %
- Impurity RRT 1.02 [9]: 0.06 area %
- Impurity RRT 1.05 [9]: NQ (≥0.02% and <0.05%)
- Impurity RRT 1.06 (Cmpd 4) [9]: NQ (≥0.02% and <0.05%)
- Impurity RRT 1.17 (Cmp 6) [9]: 0.38 area %
- Impurity RRT 1.39 [9]: 0.05 area %
- Purity [9]: 99.3%
- Water Content [9]: 0.1%
- Impurities Total [10]: 0.6 area %
- Impurity RRT 0.80 [10]: NQ (≥0.02% and <0.05%)
- Impurity RRT 0.84 [10]: NQ (≥0.02% and <0.05%)
- Impurity RRT 0.87 [10]: NQ (≥0.02% and <0.05%)
- Impurity RRT 0.99 [10]: 0.14 area %
- Impurity RRT 1.02 [10]: 0.06 area %
- Impurity RRT 1.05 [10]: NQ (≥0.02% and <0.05%)
- Impurity RRT 1.06 (Cmpd 4) [10]: NQ (≥0.02% and <0.05%)
- Impurity RRT 1.17 (Cmp 6) [10]: 0.38 area %
- Impurity RRT 1.39 [10]: 0.05 area %
- Purity [10]: 99.3%
- Water Content [10]: 0.1%
- Assay (Storage 40° C./75% RH, 1 M, Prep P1-P2, listed as Batch B): 99.1% and 99.4%
- Assay [11]: 98.7%
- Impurities Total [11]: 1.0 area %
- Impurity RRT 0.38 [11]: NQ (≥0.02% and <0.05%)
- Impurity RRT 0.80 [11]: NQ (≥0.02% and <0.05%)
- Impurity RRT 0.84 [11]: NQ (≥0.02% and <0.05%)
- Impurity RRT 0.87 [11]: NQ (≥0.02% and <0.05%)
- Impurity RRT 0.99 [11]: 0.24 area %
- Impurity RRT 1.02 [11]: 0.19 area %
- Impurity RRT 1.06 (Cmpd 4) [11]: NQ (≥0.02% and <0.05%)
- Impurity RRT 1.17 (Cmp 6) [11]: 0.37 area %
- Impurity RRT 1.39 [11]: 0.16 area %
- Purity [11]: 98.9%
- Water Content [11]: 0.04%
- Impurity RRT 0.38 [12]: NQ (≥0.02% and <0.05%)
- Impurity RRT 0.80 [12]: NQ (≥0.02% and <0.05%)
- Impurity RRT 0.84 [12]: NQ (≥0.02% and <0.05%)
- Impurity RRT 0.87 [12]: NQ (≥0.02% and <0.05%)
- Impurity RRT 0.99 [12]: 0.24 area %
- Impurity RRT 1.02 [12]: 0.19 area %
- Impurity RRT 1.39 [12]: 0.16 area %
- Purity [12]: 98.9%
- Assay [13]: 98.5% and 99.0%
- Impurities Total [13]: 1.0 area % and 0.9 area %
- Impurity RRT 1.17 (Cmp 6) [13]: 0.39 area % and 0.35 area %
- Water Content [13]: <0.04% and 0.04%
- Assay [14]: 98.4%
- Impurities Total [14]: 1.0 area %
- Impurity RRT 0.39 [14]: NQ (≥0.02% and <0.05%)
- Impurity RRT 0.80 [14]: NQ (≥0.02% and <0.05%)
- Impurity RRT 0.84 [14]: NQ (≥0.02% and <0.05%)
- Impurity RRT 0.87 [14]: NQ (≥0.02% and <0.05%)
- Impurity RRT 0.99 [14]: NQ (≥0.02% and <0.05%)
- Impurity RRT 1.02 [14]: 0.34 area %
- Impurity RRT 1.06 (Cmpd 4) [14]: NQ (≥0.02% and <0.05%)
- Impurity RRT 1.17 (Cmp 6) [14]: 0.30 area %
- Impurity RRT 1.27 [14]: NQ (≥0.02% and <0.05%)
- Impurity RRT 1.39 [14]: 0.34 area %
- Purity [14]: 98.9%
- Water Content [14]: <0.04%
- Impurities Total [15]: 1.0 area %
- Impurity RRT 0.39 [15]: NQ (≥0.02% and <0.05%)
- Impurity RRT 0.80 [15]: NQ (≥0.02% and <0.05%)
- Impurity RRT 0.84 [15]: NQ (≥0.02% and <0.05%)
- Impurity RRT 0.87 [15]: NQ (≥0.02% and <0.05%)
- Impurity RRT 0.99 [15]: NQ (≥0.02% and <0.05%)
- Impurity RRT 1.02 [15]: 0.34 area %
- Impurity RRT 1.06 (Cmpd 4) [15]: NQ (≥0.02% and <0.05%)
- Impurity RRT 1.39 [15]: 0.34 area %
- Water Content [15]: <0.04%
- Assay [16]: 98.6% and 98.2%
- Impurity RRT 1.17 (Cmp 6) [16]: 0.31 area % and 0.29 area %
- Purity [16]: 98.8% and 98.9%
- stability (over 24 months): excellent stability
Structure (SMILES): COc1ccc(S(=O)(=O)Nc2cc(-c3c(O)ccc4ccccc34)c(O)c3ccccc23)cc1 [TTI-101]
- Assay [8]: 99.0% and 100.5% and 99.3% and 99.5% and 98.8%
